According to PubChem BioAssay AID1774 (Sanford-Burnham Center for Chemical Genomics, 2009):
Activity calls are given as the source filed them. How the calls were made is not given here.

System: MDA-MB-435 cytotoxicity with apoptosis inducers, ATPlite, 24 h
Experiment: PubChem AID 1774
Settings: stronger effect = higher value

## CSc1nc(-c2ccc(C)cc2)nc(C(Cl)Cl)n1
At 5 µM
  cytotoxicity: -11% (inactive)
Compound alone 2.5 uM, at 2.5 µM
  cytotoxicity: -19%
Plus doxorubicin 50 ug/mL, at 5 µM
  cytotoxicity: 30%
Plus doxorubicin 100 ug/mL, at 5 µM
  cytotoxicity: 75%
Plus etoposide 50 uM, at 5 µM
  cytotoxicity: 18%
Plus etoposide 100 uM, at 5 µM
  cytotoxicity: 14%
Plus thapsigargin 3 uM, at 5 µM
  cytotoxicity: 17%
Plus thapsigargin 10 uM, at 5 µM
  cytotoxicity: -7%
Plus tunicamycin 10 ug/mL, at 5 µM
  cytotoxicity: 10%
Plus tunicamycin 30 ug/mL, at 5 µM
  cytotoxicity: 16%
